pEC50: −log10 of the molar value. Values joined by “and” are separate entries in the source; they are usually repeats but may differ in a detail not shown here. Equal values may be shown once. Active and inactive are the calls of the source. How the calls were made is not given here.
Key:
[1] = tested on: S. cerevisiae LAP4-GFP reporter, flow cytometry fluorescence; assay: concentration series on yeast TOR reporter LAP4 – cell-based, MLPCN hits, flow cytometry, dose response (AID 2745);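 further: yeast exposed to compound for three hours at 30 degrees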
[2] = as above; conditions: S. cerevisiae LAP4-GFP reporter, flow cytometry fluorescence; at 33 µM (top of the series)

| SMILES | pEC50 [1] | LAP4-GFP fluorescence (kMESF) [2] |
| --- | --- | --- |
| COc1cccc(/C=N/Nc2ccc([N+](=O)[O-])cn2)c1O | 5.24 |  |
| Cc1ccc(/C=N/Nc2ncc(Cl)cc2Cl)s1 | 4.50 |  |
| O=C(NC(=S)NNC(=O)c1cnccn1)c1ccc(Cl)cc1 | 5.76 |  |
| Clc1cccc(CN2COc3c(cc(Cl)c4cccnc34)C2)c1 | 5.07 |  |
| O=C(/C=C/c1ccc(F)cc1)NC(=S)NNC(=O)c1cnccn1 | 5.81 |  |
| Cc1ccsc1/C=N/Nc1ncc(Cl)cc1Cl | 5.21 |  |
| Nc1ccccc1C#CC(=O)c1ccccc1 | 5.08 |  |
| C/C(=N\NC(=O)c1cc2ccccc2cc1O)c1ccccn1 | 5.40 |  |
| O=C(COc1ccccc1)NNC(=S)NC(=O)c1ccc(Cl)cc1Cl | 4.75 |  |
| N#Cc1nccnc1S(=O)(=O)c1cccs1 | 4.85 |  |
| COc1cccc(/C=C/C(=O)c2c(O)cc(C)oc2=O)c1O | 5.35 |  |
| O=C(Nc1ccc(Cl)cc1Cl)c1cccc(N2C(=O)C=CC2=O)c1 | 5.41 |  |
| Clc1ccc(N=c2ssnc2Cl)cc1 | 4.71 |  |
| Cc1ccc(C(c2cc(Cl)c3cccnc3c2O)N2CCN(C)CC2)cc1 (configuration not stated) | 5.66 |  |
| Cc1cccc(Nc2nc(-c3ccccn3)cs2)n1 | 5.42 |  |
| COc1ccccc1N=Nc1ccc(O)c2ncccc12 | 5.37 |  |
| N=C1S/C(=C\c2ccco2)C(=O)N1c1nccs1 | 5.40 |  |
| Cc1cc(C2CCCCC2)n(O)c(=O)c1 | 5.27 |  |
| ClC(Cl)(c1nnnn1-c1ccccc1)c1nnnn1-c1ccccc1 | 5.42 |  |
| Cc1ccc(NN2C(=O)C=C(c3ccc(Cl)cc3)C2=O)cc1 | 6.16 |  |
| Cc1ccc(/C=C/C(=O)c2ccccc(=O)c2O)c(C)c1 | 5.38 |  |
| N/C(Cc1ccc(Cl)cc1)=N\OC(=O)c1ccccc1 | 5.36 |  |
| Cn1ncc(S(=O)(=O)Cc2ccccc2)c(Cl)c1=O | 5.40 |  |
| O=C(Oc1ccnc2cc(Cl)ccc12)N1CCCCCC1 | 4.92 |  |
| CN1CCN(C(=O)c2cc(COc3c(F)cccc3F)on2)CC1c1ccccc1 (configuration not stated) | 5.18 |  |

| SMILES | pEC50 [1] | LAP4-GFP fluorescence (kMESF) [2] |
| --- | --- | --- |
| CNC(CC(=O)c1ccc([N+](=O)[O-])cc1)C(Cl)(Cl)Cl (configuration not stated) | 5.87 |  |
| COc1ccc(C(=O)NNC(=S)NC(=O)/C=C/c2cccs2)cc1 | 5.04 |  |
| CC(C)Oc1ccc(C(=O)/C=C2/C(=O)Nc3ccccc32)cc1 | 5.03 |  |
| O=S1(=O)C=C(Sc2nc3ccccc3s2)c2ccccc21 | 5.48 |  |
| Cc1ccc(S(=O)(=O)c2ccc([N+](=O)[O-])cn2)cc1 | 4.83 |  |
| COc1ccc(/C=C2\C(=O)ON=C2c2ccccc2)cc1 | 5.16 |  |
| O=C(O)/C=C/C(=O)c1ccc2c(c1)CCc1ccccc1-2 | 5.92 |  |
| COc1ccc(C(=O)NC(=S)NNC(=O)c2cnccn2)cc1 | 5.88 |  |
| Cc1c(C(=O)Nc2nc(-c3ccccn3)cs2)oc2ccccc12 | 5.40 |  |
| COc1ccc(N2C(=O)C(Cl)=C(Oc3cccc(OC)c3)C2=O)cc1 | 5.31 |  |
| Cc1ccc(O)c(N=Nc2nccs2)c1 | 5.35 |  |
| CC(C)(C)C(=O)NC(=S)NNC(=O)c1ccc(-c2ccccc2)cc1 | 5.12 |  |
| O=[N+]([O-])c1cc(O)c2ncccc2c1 | 5.01 |  |
| Cc1[nH]c(-c2ccccn2)nc(=S)c1Cl | 5.34 |  |
| CSC1=NS(=O)(=O)c2c(C)nn(C)c2S1 | 4.56 |  |
| CC1=NNC(=O)/C1=C\c1cn(-c2ccccc2)nc1-c1ccccc1 | 5.14 |  |
| CCOC(=O)/C(=C\c1cn(C)c2ccccc12)[N+](=O)[O-] | 5.65 |  |
| COc1ccc(N/N=C(\C#N)C(N)=O)cc1 |  | 13.2 kMESF (inactive) |
| C[n+]1ccc(/C=C/c2c[nH]c3ccccc23)cc1 |  | 9.29 kMESF (inactive) |
| Cc1cc(NC(c2ccc(Cl)cc2)c2ccc3cccnc3c2O)no1 (configuration not stated) |  | 11.2 kMESF (inactive) |
| COc1ccc(C(=O)NC(=S)NNC(=O)CCc2ccccc2)cc1 |  | 5.9 kMESF (inactive) |
| O=C(Cc1ccc(Cl)cc1)NNC(=S)NC(=O)c1cccs1 |  | 9.52 kMESF (inactive) |
| O=[N+]([O-])c1ccc(S(=O)(=O)c2ccccc2)nc1 |  | 9.63 kMESF (inactive) |
| COc1cc(N=c2ssnc2Cl)c(OC)cc1Cl |  | 13.4 kMESF (inactive) and 13.8 kMESF (inactive) |
| O=C(COc1ccccc1)NNC(=S)NC(=O)c1ccccc1 |  | 4.36 kMESF (inactive) |

| SMILES | pEC50 [1] | LAP4-GFP fluorescence (kMESF) [2] |
| --- | --- | --- |
| CCN1C(=O)/C(=C\C(=O)c2cccs2)c2cc(Br)ccc21 |  | 12 kMESF (inactive) |
| COc1ccccc1C(=O)NNC(=S)NC(=O)c1cccs1 |  | 6.21 kMESF (inactive) |
| CC(=O)Oc1oc(-c2ccccc2)nc1C=Nc1ccccc1 |  | 8.16 kMESF (inactive) |
| O=C(Nc1ccc(N2CCOCC2)cc1)C1CCN(S(=O)(=O)c2ccc3c(c2)OCCO3)CC1 |  | 3.78 kMESF (inactive) |
| O=C1C=C(Nc2ccc(Cl)cc2)C(=O)N1c1ccc(Cl)cc1 |  | 3.03 kMESF (inactive) |
| CCCCc1ccc(/C=C2/C(=O)ON=C2c2ccccc2)s1 |  | 3.67 kMESF (inactive) |
| Cc1ccc(C(=O)Oc2oc(-c3ccccc3)nc2C=Nc2ccc(N(C)C)cc2)cc1 |  | 6.02 kMESF (inactive) |
| C=C1C(O)[C@@H]2O[C@]3(CC[C@H](/C=C/C(C)[C@@H]4CC(C)=CC5(O[C@H](C[C@@](C)(O)C(=O)O)CCC5O)O4)O3)CC[C@H]2O[C@@H]1C(O)CC(C)[C@H]1OC2(CCCCO2)CCC1C (some centres not stated) |  | 11.7 kMESF (inactive) |
| O=C(O)c1ccc2c(c1)C(=O)/C(=C/c1ccccc1)C2=O |  | 3.53 kMESF (inactive) |
| C#CCOCCOCCOCCNc1nc(N2CCN(C(=O)CCCCCCCCCCNC(=O)[C@H](CCCCN)n3cc(C)nn3)CC2)nc(N2CCN(C(=O)CCCCCCCCCCNC(=O)[C@H](CCCN=C(N)N)n3cc(C[C@@H](C)CC)nn3)CC2)n1 |  | 6.77 kMESF (inactive) |
| Cc1ccc2[nH]c(C)c(/C=C/c3cc[n+](C)cc3)c2c1 |  | 8.71 kMESF (inactive) |
| O=C(/C=C/c1ccccc1Cl)c1ccccc(=O)c1O |  | -5.15 kMESF (inactive) |
| O=C(Nc1nnc(-c2ccc3c(c2)CCCC3)o1)c1ccc(Cl)cc1Cl |  | 5.77 kMESF (inactive) |
| CN(O)/C=c1/ccc2c(n1)C(=O)C=CC=2 |  | 17.5 kMESF (inactive) |
| C#CCOCCOCCOCCNc1nc(N2CCN(C(=O)CCCCCCCCCCNC(=O)[C@H](CCCCN)n3cc(CCO)nn3)CC2)nc(N2CCN(C(=O)CCCCCCCCCCNC(=O)[C@H](CCCN=C(N)N)n3cc(C[C@@H](C)CC)nn3)CC2)n1 |  | 6.17 kMESF (inactive) |
| CCCc1cc(=O)oc2cc(C)cc(OCC(=O)NC3CC3)c12 |  | 3.74 kMESF (inactive) |
| O=C1C(Cl)=C(Nc2ccccc2O)C(=O)N1CCc1ccccc1 |  | 5.01 kMESF (inactive) |
| CN(C)NC(=S)Nc1ccc(S(=O)(=O)N2CCCCC2)cc1 |  | 3.13 kMESF (inactive) |
| O=[N+]([O-])c1cc(CN2CCN(c3cccc(C(F)(F)F)c3)CC2)c2cccnc2c1O |  | 7.46 kMESF (inactive) |
| CSc1nnc2c3cc(F)ccc3n(C)c2n1 |  | 2.93 kMESF (inactive) |
| CCc1ccc(/C=C/C(=O)c2cc(Br)ccc(=O)c2O)cc1 |  | 9 kMESF (inactive) |
| Oc1ccc(N=Nc2ccccc2)o1 |  | 18.8 kMESF (inactive) |
| COc1cc(NC(=O)c2ccc(C)cc2)ccc1NC(=O)c1cc2ccccc2o1 |  | 3.61 kMESF (inactive) |
| Cc1ccc(N=c2ssnc2Cl)cc1 |  | 10.6 kMESF (inactive) |
| O=c1c2cnn(-c3ccccc3)c2ncn1Cc1ccco1 |  | 2.63 kMESF (inactive) |

| SMILES | pEC50 [1] | LAP4-GFP fluorescence (kMESF) [2] |
| --- | --- | --- |
| CC(C)(C)C1C/C(=C/c2ccccn2)C(=O)/C(=C/c2ccccn2)C1 (configuration not stated) |  | 4.25 kMESF (inactive) |
| COc1cccc(/C=C2\SC(=S)N(CCCC(=O)Nc3ccc(C(=O)O)cc3)C2=O)c1 |  | 3.71 kMESF (inactive) |
| Cc1ccc(/C(N)=N/OC(=O)c2ccc(F)cc2)cc1 |  | 5.21 kMESF (inactive) |
| CCN(CC)C(=S)SSC(=S)N(CC)CC |  | 20.4 kMESF (inactive) |
| O=C(Oc1oc(-c2ccco2)nc1C=Nc1ccc(Cl)cc1)c1ccco1 |  | 8.92 kMESF (inactive) |
| CCOC(=O)c1c(C)oc2c1c(C(c1cccnc1)N1CCOCC1)c(O)c1ccccc12 (configuration not stated) |  | 4.07 kMESF (inactive) |
| Cc1[nH]n(-c2ncc(-c3ccccc3)s2)c(=O)c1C(c1ccc(Cl)cc1)C(C#N)C#N (configuration not stated) |  | 8.02 kMESF (inactive) |
| COc1ccc(CCNC2=C(Cl)C(=O)N(CCc3ccc(OC)c(OC)c3)C2=O)cc1OC |  | 5.91 kMESF (inactive) |
| COc1ccc(NC2=C(Cl)C(=O)N(CCc3ccccc3)C2=O)c(OC)c1 |  | 3.18 kMESF (inactive) |
| O=C(NC(=S)Nc1ccc2oc(=O)ccc2c1)c1cccc(Cl)c1 |  | 3.47 kMESF (inactive) |
| O=C1C(=O)c2ccccc2-c2ccccc21 |  | 5.27 kMESF (inactive) |
| CC(C)C[C@]1(c2ccccc2)ON(c2ccccc2C(F)(F)F)C1=O |  | 2.53 kMESF (inactive) |
| CS(=O)(=O)c1sc(C#N)c2c1C(=O)CC(c1ccccc1)C2 (configuration not stated) |  | 14.6 kMESF (inactive) |
| C#CCOCCOCCOCCNc1nc(N2CCN(C(=O)CCCCCCCCCCNC(=O)[C@@H](CCC(=O)O)n3cc(CCCCCN)nn3)CC2)nc(N2CCN(C(=O)CCCCCCCCCCNC(=O)[C@H](CCCCN)n3cc(C[C@@H](C)CC)nn3)CC2)n1 |  | 6.47 kMESF (inactive) |
| CC(=O)Oc1ccc(/C=c2\sc3ncnn3c2=O)cc1 |  | 10.1 kMESF (inactive) |
| C#CCOc1c(Br)cc(/C=C2/C(=O)ON=C2C)cc1OC |  | 12.2 kMESF (inactive) |
| CCCN1CCc2c(sc(NC(=S)NC(=O)c3ccccc3)c2C#N)C1 |  | 7.91 kMESF (inactive) |
| Cc1ccc(NC(=O)CCc2ccccc2)cc1S(=O)(=O)N1CCOCC1 |  | 3.23 kMESF (inactive) |
| COc1cc(/C=C2/C(=O)ON=C2c2ccccc2)ccc1O |  | 9.39 kMESF (inactive) |
| CCC(=O)Nc1ccc(NC(=O)c2cc3ccccc3o2)cc1 |  | 3.31 kMESF (inactive) |
| C/C(=N\Nc1ncnc2sc(C)c(C)c12)c1ccccn1 |  | -7.63 kMESF (inactive) |
| CC(C)[C@@]1(c2ccccc2)ON(c2ccccc2C(F)(F)F)C1=O |  | 3.43 kMESF (inactive) |

Source: PubChem BioAssay AID2745 (NMMLSC, 2010)
